Key:
[1] = tested on: HCV replicon I389luc-ubi-neo/NS3-3′/ET in ET (Huh-lucubineo-ET) cells; test: Replicon assay (Biological Example 2), luciferase readout; format: cell-based; settings: Hepatitis C virus
Description: A cell line, ET (Huh-lucubineo-ET) was used for screening of compounds for inhibiting HCV RNA dependent RNA polymerase. The ET cell line was stably transfected with RNA transcripts harboring a I389luc-ubi-neo/NS3-3′/ET; replicon with firefly luciferase-ubiquitin-neomycin phosphotransferase fusion protein and EMCV-IRES driven NS3-5B polyprotein containing the cell culture adaptive mutations (E1202G; T12801; K1846T) (Krieger at al, 2001 and unpublished). The ET cells were grown in DMEM (Dulbeco's Modified Eagle's Medium), supplemented with 10% fetal calf serum, 2 mM Glutamine, Penicillin (100 IU/mL)/Streptomycin (100 μg/mL), 1× nonessential amino acids, and 250 μg/mL G418 (“Geneticin”). Reagents were all available through Life Technologies (Bethesda, Md.). The cells were plated at 0.5-1.0×10^4 cells/well in the 96 well plates and incubated for 24 hrs before adding test compound. The compounds were added to the cells to achieve a final concentration of 0.1 nM to 50 μM and a final DMSO (dimethylsulfoxide) concentration of 0.5%. Luciferase activity was measured 48 hours later by adding a lysis buffer and the substrate (Catalog number Glo-lysis buffer E2661 and Bright-Glo luciferase system E2620 Promega, Madison, Wis.). Cells should not be too confluent during the assay. Percent inhibition of replication data was plotted relative to no compound control. To determine the EC50 (effective concentration at which 50% of the maximum inhibition was observed), a 10 point, 3-fold serial dilution for each compound was used, which spans a concentration range of […]. EC50 values were calculated by fitting % inhibition at each concentration to the following equation: % inhibition=100%/[(EC50/[I])^b+1] where b was Hill's coefficient.
In other aspects the EC50 was equal to or less than 10 μM. In still other aspects the EC50 was equal to or less than 1 μM.

HCV polymerase = biological target: T1, HCV polymerase (Hepatitis C virus genotype 1b, UniProt Q9WMX2); test: Polymerase assay of Biological Example 1 (IC50 values of Table 3); format: biochemical; settings: IC50 values of Table 3, polymerase assay of Biological Example 1; read-out: NS5B-enzyme3
T1 construct: (His)6 (C); made in house; host or cells: XL-1 cells (E. coli, by own knowledge)
Description: A number of assays have been published to assess these activities. A general method that assesses the gross increase of HCV virus in culture was disclosed in U.S. Pat. No. 5,738,985 to Miles et al. In vitro assays have been reported in Ferrari et al. Jnl. of Vir., 73:1649-1654, 1999; Ishii et al., Hepatology, 29:1227-1235, 1999; Lohmann et al., Jnl of Bio. Chem., 274:10807-10815, 1999; and Yamashita et al., Jnl. of Bio. Chem., 273:15479-15486, 1998.
WO 97/12033, filed on Sep. 27, 1996, by Emory University, listing C. Hagedorn and A. Reinoldus as inventors, which claims priority to U.S. Provisional Patent Application Ser. No. 60/004,383, filed on September 1995, described an HCV polymerase assay that can be used to evaluate the activity of the of the compounds described herein. Another HCV polymerase assay has been reported by Bartholomeusz, et al., Hepatitis C Virus (HCV) RNA polymerase assay using cloned HCV non-structural proteins; Antiviral Therapy 1996:1 (Supp 4) 18-24.

[2] = ET cells, luciferase activity 48 hours after compound

## O=C(O)c1sc(-c2ccc(Cl)cc2)cc1N1C(=O)CN(S(=O)(=O)c2ccc(N3CCCCC3)cc2)C[C@H]1C1CCCCC1 [Compound 233, 5-(4-Chloro-phenyl)-3-[(R)-2-cyclohexyl-6-oxo-4-(4-piperidin-1-yl-benzenesulfonyl)-piperazin-1-yl]-thiophene-2-carboxylic acid]
[1]; [2]
  IC50: ≤ 100 nM
HCV polymerase
  IC50: 2 nM

## O=C(O)c1sc(-c2ccc(Cl)cc2)cc1N1C(=O)COC[C@H]1C1CCCCC1 [Compound 293, 5-(4-Chloro-phenyl)-3-((R)-3-cyclohexyl-5-oxo-morpholin-4-yl)-thiophene-2-carboxylic acid]
[1]; between 100 nM and 5.0 uM
  IC50: 100 to 5000 nM
HCV polymerase
  IC50: 5 nM

## CC(C)(C)OC(=O)N[C@H]1CCCN(c2ccc(S(=O)(=O)N3CC(=O)N(c4cc(-c5ccccc5)sc4C(=O)O)[C@H](C4CCCCC4)C3)cn2)C1 [Compound 159, 3-[(R)-4-((S)-3-tert-Butoxycarbonyl-amino-3,4,5,6-tetrahydro-2H-[1,2′]bipyridinyl-5′-sulfonyl)-2-cyclohexyl-6-oxo-piperazin-1-yl]-5-phenyl-thiophene-2-carboxylic acid]
[1]; between 100 nM and 5.0 uM
  IC50: 100 to 5000 nM
HCV polymerase
  IC50: 3 nM

## N[C@H]1CCN(c2ccc(S(=O)(=O)N3CC(=O)N(c4cc(-c5ccccc5)sc4C(=O)O)[C@H](C4CCCCC4)C3)cn2)C1 [Compound 144, 3-{(R)-4-[6-((S)-3-Amino-pyrrolidin-1-yl)-pyridine-3-sulfonyl]-2-cyclohexyl-6-oxo-piperazin-1-yl}-5-phenyl-thiophene-2-carboxylic acid]
[1]; between 100 nM and 5.0 uM
  IC50: 100 to 5000 nM
HCV polymerase
  IC50: 2 nM

## Cc1ccc(-c2cc(N3C(=O)CN(S(=O)(=O)c4ccc(C(C)(C)C)nc4)C[C@H]3C3CCCCC3)c(C(=O)O)s2)cc1 [Compound 303, 3-[(R)-4-(6-tert-Butyl-pyridine-3-sulfonyl)-2-cyclohexyl-6-oxo-piperazin-1-yl]-5-p-tolyl-thiophene-2-carboxylic acid]
[1]; [2]
  IC50: ≤ 100 nM
HCV polymerase
  IC50: 4 nM

## C[C@@H]1COCCN1c1ccc(S(=O)(=O)N2CC(=O)N(c3cc(-c4ccc(F)cc4)sc3C(=O)O)[C@H](C3CCCCC3)C2)cn1 [Compound 195, 3-{(R)-2-Cyclohexyl-4-[6-((R)-3-methyl-morpholin-4-yl)-pyridine-3-sulfonyl]-6-oxo-piperazin-1-yl}-5-(4-fluoro-phenyl)-thiophene-2-carboxylic acid]
[1]; [2]
  IC50: ≤ 100 nM
HCV polymerase
  IC50: 3 nM

## CC(C)(C)C#Cc1cc(N2C(=O)CN(S(=O)(=O)c3ccc(F)cc3)C[C@H]2C2CCCCC2)c(C(=O)O)s1 [Compound 243, 3-[(R)-2-Cyclohexyl-4-(4-fluoro-benzenesulfonyl)-6-oxo-piperazin-1-yl]-5-(3,3-dimethyl-but-1-ynyl)-thiophene-2-carboxylic acid]
[1]; [2]
  IC50: ≤ 100 nM
HCV polymerase
  IC50: 2 nM

## O=C(O)c1sc(-c2ccc(F)cc2)cc1N1C(=O)CN(S(=O)(=O)c2ccc(N3CC[C@H](F)C3)nc2)C[C@H]1C1CCCCC1 [Compound 287, 3-{(R)-2-Cyclohexyl-4-[6-((S)-3-fluoro-pyrrolidin-1-yl)-pyridine-3-sulfonyl]-6-oxo-piperazin-1-yl}-5-(4-fluoro-phenyl)-thiophene-2-carboxylic acid]
[1]; [2]
  IC50: ≤ 100 nM
HCV polymerase
  IC50: 1 nM

## Cc1cc(S(=O)(=O)N2CC(=O)N(c3cc(-c4ccccc4)sc3C(=O)O)[C@H](C3CCCCC3)C2)cnc1N1CCC[C@H]1C [Compound 173, 3-{(R)-2-Cyclohexyl-4-[5-methyl-6-((R)-2-methyl-pyrrolidin-1-yl)-pyridine-3-sulfonyl]-6-oxo-piperazin-1-yl}-5-phenyl-thiophene-2-carboxylic acid]
[1]; [2]
  IC50: ≤ 100 nM
HCV polymerase
  IC50: 1 nM

## CC(C)(C)OC(=O)N[C@H]1CCCN(c2ccc(S(=O)(=O)N3CC(=O)N(c4cc(-c5ccccc5)sc4C(=O)O)[C@H](C4CCCCC4)C3)cn2)C1 [Compound 158, 3-[(R)-4-((S)-3-tert-Butoxycarbonylamino-3,4,5,6-tetrahydro-2H-[1,2′]bipyridinyl-5′-sulfonyl)-2-cyclohexyl-6-oxo-piperazin-1-yl]-5-phenyl-thiophene-2-carboxylic acid]
[1]; [2]
  IC50: ≤ 100 nM
HCV polymerase
  IC50: 2 nM

## O=C(O)c1sc(-c2ccccc2)cc1N1C(=O)CN(Cc2ccc(N3CCCC3)nc2)C[C@H]1C1CCCCC1 [Compound 182, 3-[(R)-2-Cyclohexyl-6-oxo-4-(6-pyrrolidin-1-yl-pyridin-3-ylmethyl)-piperazin-1-yl]-5-phenyl-thiophene-2-carboxylic acid]
[1]; [2]
  IC50: ≤ 100 nM
HCV polymerase
  IC50: 2 nM

## O=C(O)c1sc(-c2ccc(Cl)cc2)cc1N1C(=O)CCCC1C1CCCCC1 (stereo not shown) [Compound 73, 5-(4-Chloro-phenyl)-3-(2-cyclohexyl-6-oxo-piperidin-1-yl)-thiophene-2-carboxylic acid]
[1]; between 100 nM and 5.0 uM
  IC50: 100 to 5000 nM
HCV polymerase
  IC50: 21 nM

## CC(C)(C)C#Cc1cc(N2C(=O)[C@](C)(CC(O)CO)OC[C@H]2C2CCCCC2)c(C(=O)O)s1 (stereo partly drawn) [Compound 327, 3-[(2S,5R)-5-Cyclohexyl-2-(2,3-dihydroxy-propyl)-2-methyl-3-oxo-morpholin-4-yl]-5-(3,3-dimethyl-but-1-ynyl)-thiophene-2-carboxylic acid]
[1]; [2]
  IC50: ≤ 100 nM
HCV polymerase
  IC50: 4 nM

## COc1ccccc1S(=O)(=O)N1CC(=O)N(c2cc(C#CC(C)(C)C)sc2C(=O)O)[C@H](C2CCCCC2)C1 [Compound 258, 3-[(R)-2-Cyclohexyl-4-(2-methoxy-benzenesulfonyl)-6-oxo-piperazin-1-yl]-5-(3,3-dimethyl-but-1-ynyl)-thiophene-2-carboxylic acid]
[1]; [2]
  IC50: ≤ 100 nM
HCV polymerase
  IC50: 7 nM

## CCn1cc(S(=O)(=O)N2CC(=O)N(c3cc(-c4ccc(C)cc4)sc3C(=O)O)[C@H](C3CCCCC3)C2)cn1 [Compound 296, 3-[(R)-2-Cyclohexyl-4-(1-ethyl-1H-pyrazole-4-sulfonyl)-6-oxo-piperazin-1-yl]-5-p-tolyl-thiophene-2-carboxylic acid]
[1]; [2]
  IC50: ≤ 100 nM
HCV polymerase
  IC50: 5 nM

## CC(C)(C)C#Cc1cc(N2C(=O)[C@H](O)CC[C@H]2C2CCCCC2)c(C(=O)O)s1 [Compound 334, 3-((3R,6S)-6-Cyclohexyl-3-hydroxy-2-oxo-piperidin-1-yl)-5-(3,3-dimethyl-but-1-ynyl)-thiophene-2-carboxylic acid]
[1]; [2]
  IC50: ≤ 100 nM
HCV polymerase
  IC50: 3 nM

## CC(C)(C)C#Cc1cc(N2C(=O)CN(S(=O)(=O)c3ccccc3OC(F)(F)F)C[C@H]2C2CCCCC2)c(C(=O)O)s1 [Compound 249, 3-[(R)-2-Cyclohexyl-6-oxo-4-(2-trifluoromethoxy-benzenesulfonyl)-piperazin-1-yl]-5-(3,3-dimethyl-but-1-ynyl)-thiophene-2-carboxylic acid]
[1]; between 100 nM and 5.0 uM
  IC50: 100 to 5000 nM
HCV polymerase
  IC50: 19 nM

## Cc1ccc(CN2CC(=O)N(c3cc(C#CC(C)(C)C)sc3C(=O)O)C(C3CCCCC3)C2)cc1 (stereo not shown) [Compound 174, 3-[2-Cyclohexyl-4-(4-methyl-benzyl)-6-oxo-piperazin-1-yl]-5-(3,3-dimethyl-but-1-ynyl)-thiophene-2-carboxylic acid]
[1]; [2]
  IC50: ≥ 5000 nM
HCV polymerase
  IC50: 5110 nM

## CCN(CC)c1ccc(S(=O)(=O)N2CC(=O)N(c3cc(-c4ccccc4)sc3C(=O)O)[C@H](C3CCCCC3)C2)cn1 [Compound 177, 3-[(R)-2-Cyclohexyl-4-(6-diethylamino-pyridine-3-sulfonyl)-6-oxo-piperazin-1-yl]-5-phenyl-thiophene-2-carboxylic acid]
[1]; [2]
  IC50: ≤ 100 nM
HCV polymerase
  IC50: 2 nM

## CC1CN(c2ccc(S(=O)(=O)N3CC(=O)N(c4cc(-c5ccccc5)sc4C(=O)O)C(C4CCCCC4)C3)cn2)CC(C)O1 (stereo not shown) [Compound 87, 3-{2-Cyclohexyl-4-[6-(2,6-dimethyl-morpholin-4-yl)-pyridine-3-sulfonyl]-6-oxopiperazin-1-yl}-5-phenyl-thiophene-2-carboxylic acid]
[1]; [2]
  IC50: ≤ 100 nM
HCV polymerase
  IC50: 5 nM

Source: patent US9498483B2, “2,3,5-trisubstituted thiophene compounds and uses thereof” (priority 2010, dated 2016)
